In PMC10998594, “Structural and mechanistic basis of the central energy-converting methyltransferase complex of methanogenesis” (Proceedings of the National Academy of Sciences of the …, 2024):

Target: T1, MtrABCDEFG; Mtr(ABCDEFG)3; N5-methyl-tetrahydromethanopterin: coenzyme M methyltransferase core complex (Methanothermobacter marburgensis, UniProt P80183+P80185+P80186)
T1 construct: gene mtrE; native purification from M. marburgensis membranes (DDM/LMNG); trimer of MtrABCDEFG protomers, 430 kDa; MtrH not visible; soluble MtrA domain disordered, only MtrA 178-238 seen; printed lengths MtrB 100, MtrC 267, MtrD 233, MtrE 295, MtrF 68, MtrG 86; with Tetrahydromethanopterin S-methyltransferase subunit A; Tetrahydromethanopterin S-methyltransferase subunit B; Tetrahydromethanopterin S-methyltransferase subunit F; Tetrahydromethanopterin S-methyltransferase subunit G
T1 sequence (P80183 whole entry, looked up, the tested form may be a part): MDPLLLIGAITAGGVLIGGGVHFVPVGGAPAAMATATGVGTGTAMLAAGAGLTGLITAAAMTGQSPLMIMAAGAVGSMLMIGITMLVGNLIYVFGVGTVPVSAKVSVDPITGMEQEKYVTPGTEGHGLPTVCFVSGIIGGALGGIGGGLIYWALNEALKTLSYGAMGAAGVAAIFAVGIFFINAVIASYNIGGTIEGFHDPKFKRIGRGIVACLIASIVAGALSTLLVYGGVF
T1 sequence (P80185 whole entry, looked up, the tested form may be a part): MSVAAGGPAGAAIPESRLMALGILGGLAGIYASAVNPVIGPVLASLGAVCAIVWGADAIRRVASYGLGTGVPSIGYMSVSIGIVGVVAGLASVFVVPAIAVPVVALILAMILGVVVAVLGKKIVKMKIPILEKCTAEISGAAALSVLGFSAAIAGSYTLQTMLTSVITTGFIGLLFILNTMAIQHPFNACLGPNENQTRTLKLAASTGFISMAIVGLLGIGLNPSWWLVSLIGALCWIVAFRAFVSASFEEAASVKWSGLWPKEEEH
T1 sequence (P80186 whole entry, looked up, the tested form may be a part): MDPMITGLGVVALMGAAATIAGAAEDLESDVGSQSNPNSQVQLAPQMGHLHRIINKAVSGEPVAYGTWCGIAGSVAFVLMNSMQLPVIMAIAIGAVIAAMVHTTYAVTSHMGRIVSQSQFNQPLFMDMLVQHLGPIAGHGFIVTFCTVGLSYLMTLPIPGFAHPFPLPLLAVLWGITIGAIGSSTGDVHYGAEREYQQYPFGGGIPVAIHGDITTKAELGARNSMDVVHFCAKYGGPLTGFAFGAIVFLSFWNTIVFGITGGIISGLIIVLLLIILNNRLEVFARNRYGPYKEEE
Experiment: cryo-EM structure, […] A
Type: binding
Settings: 2 mM CoM, pH 7, 80 mM NaCl; site at wall of MtrCDE cavity (MtrE R113, N38; MtrC N188); two partially occupied conformations; putative assignment

O=S(=O)(O)CCS [CoM]
cryo-EM structure, 2.39 A: revealed the CoM binding site at the wall of the MtrCDE cavity
